How the values were obtained:
Assay in all cases: Kinase selectivity, scanMAX Kinase assay panel (DiscoverX), % control at 1 uM
Assay type in all cases: binding
[1] = molecular target: T1, scanMAX Kinase assay panel (Homo sapiens, UniProt P08581); settings: MET; 1 uM; read-out: Percent Control (%)
T1 construct: purchased DiscoverX
Procedure, shortened: (§1)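 Compounds were tested at 1 uM in DMSO against each enzyme in the panel. Percent control was calculated as (compound − positive control)/(negative control − positive control) × 100, and a compound was scored active on a kinase when this value fell below 35.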

[2] = molecular target: T2, scanMAX Kinase assay panel (Homo sapiens, UniProt P29323); settings: EPHB2; 1 uM; read-out: Percent Control (%)
T2 construct: purchased DiscoverX
T2 sequence (P29323 19-1055): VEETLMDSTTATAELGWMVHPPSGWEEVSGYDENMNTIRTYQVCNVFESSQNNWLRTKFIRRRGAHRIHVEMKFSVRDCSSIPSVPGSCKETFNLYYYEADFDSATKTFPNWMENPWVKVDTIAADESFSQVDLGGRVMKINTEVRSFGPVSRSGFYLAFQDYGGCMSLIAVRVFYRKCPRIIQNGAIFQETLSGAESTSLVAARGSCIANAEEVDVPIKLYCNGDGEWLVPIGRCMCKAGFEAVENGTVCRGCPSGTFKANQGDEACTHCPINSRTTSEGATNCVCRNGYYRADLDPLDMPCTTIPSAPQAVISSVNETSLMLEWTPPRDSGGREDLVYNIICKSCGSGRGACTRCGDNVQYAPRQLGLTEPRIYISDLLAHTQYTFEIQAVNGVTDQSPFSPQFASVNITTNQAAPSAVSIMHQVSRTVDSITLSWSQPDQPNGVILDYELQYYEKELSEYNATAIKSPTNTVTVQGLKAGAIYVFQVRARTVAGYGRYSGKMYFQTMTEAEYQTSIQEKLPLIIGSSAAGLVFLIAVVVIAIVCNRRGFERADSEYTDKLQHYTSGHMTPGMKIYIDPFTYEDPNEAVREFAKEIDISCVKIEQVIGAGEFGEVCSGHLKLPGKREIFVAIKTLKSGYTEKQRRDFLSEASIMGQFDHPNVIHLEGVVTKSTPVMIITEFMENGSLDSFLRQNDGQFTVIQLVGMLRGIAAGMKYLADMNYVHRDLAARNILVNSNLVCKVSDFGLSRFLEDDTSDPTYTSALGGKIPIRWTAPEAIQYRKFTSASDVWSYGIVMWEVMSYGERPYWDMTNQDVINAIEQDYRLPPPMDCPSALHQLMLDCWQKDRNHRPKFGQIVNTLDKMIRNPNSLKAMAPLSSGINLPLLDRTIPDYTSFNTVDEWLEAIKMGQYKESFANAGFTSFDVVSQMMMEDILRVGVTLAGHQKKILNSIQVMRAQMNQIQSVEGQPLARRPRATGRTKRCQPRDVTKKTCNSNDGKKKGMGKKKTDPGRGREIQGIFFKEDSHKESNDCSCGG
Procedure, shortened: as §1

[3] = molecular target: T3, scanMAX Kinase assay panel (Homo sapiens, UniProt P49841); settings: GSK3B; 1 uM; read-out: Percent Control (%)
T3 construct: purchased DiscoverX
Procedure, shortened: as §1

[4] = molecular target: T4, scanMAX Kinase assay panel (Homo sapiens, UniProt P53778); settings: p38-gamma; 1 uM; read-out: Percent Control (%)
T4 construct: purchased DiscoverX
T4 sequence (P53778 1-367): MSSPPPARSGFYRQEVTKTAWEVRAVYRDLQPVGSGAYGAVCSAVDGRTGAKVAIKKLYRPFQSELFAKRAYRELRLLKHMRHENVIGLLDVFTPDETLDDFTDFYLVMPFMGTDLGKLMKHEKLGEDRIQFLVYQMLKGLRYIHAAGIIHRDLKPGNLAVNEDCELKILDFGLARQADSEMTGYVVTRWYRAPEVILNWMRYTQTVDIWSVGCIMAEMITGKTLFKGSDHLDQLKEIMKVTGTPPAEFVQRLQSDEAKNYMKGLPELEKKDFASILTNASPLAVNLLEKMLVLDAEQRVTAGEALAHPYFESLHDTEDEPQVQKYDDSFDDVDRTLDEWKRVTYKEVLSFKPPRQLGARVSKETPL
Procedure, shortened: as §1

[5] = molecular target: T5, scanMAX Kinase assay panel (Homo sapiens, UniProt Q8NEV4); settings: MYO3A; 1 uM; read-out: Percent Control (%)
T5 construct: purchased DiscoverX
Procedure, shortened: as §1

[6] = molecular target: T6, scanMAX Kinase assay panel (Homo sapiens, UniProt Q99558); settings: NIK; 1 uM; read-out: Percent Control (%)
T6 construct: purchased DiscoverX
Procedure, shortened: as §1

[7] = molecular target: T7, scanMAX Kinase assay panel (Homo sapiens, UniProt Q9UKI8); settings: TLK1; 1 uM; read-out: Percent Control (%)
T7 construct: purchased DiscoverX
T7 sequence (Q9UKI8 1-766): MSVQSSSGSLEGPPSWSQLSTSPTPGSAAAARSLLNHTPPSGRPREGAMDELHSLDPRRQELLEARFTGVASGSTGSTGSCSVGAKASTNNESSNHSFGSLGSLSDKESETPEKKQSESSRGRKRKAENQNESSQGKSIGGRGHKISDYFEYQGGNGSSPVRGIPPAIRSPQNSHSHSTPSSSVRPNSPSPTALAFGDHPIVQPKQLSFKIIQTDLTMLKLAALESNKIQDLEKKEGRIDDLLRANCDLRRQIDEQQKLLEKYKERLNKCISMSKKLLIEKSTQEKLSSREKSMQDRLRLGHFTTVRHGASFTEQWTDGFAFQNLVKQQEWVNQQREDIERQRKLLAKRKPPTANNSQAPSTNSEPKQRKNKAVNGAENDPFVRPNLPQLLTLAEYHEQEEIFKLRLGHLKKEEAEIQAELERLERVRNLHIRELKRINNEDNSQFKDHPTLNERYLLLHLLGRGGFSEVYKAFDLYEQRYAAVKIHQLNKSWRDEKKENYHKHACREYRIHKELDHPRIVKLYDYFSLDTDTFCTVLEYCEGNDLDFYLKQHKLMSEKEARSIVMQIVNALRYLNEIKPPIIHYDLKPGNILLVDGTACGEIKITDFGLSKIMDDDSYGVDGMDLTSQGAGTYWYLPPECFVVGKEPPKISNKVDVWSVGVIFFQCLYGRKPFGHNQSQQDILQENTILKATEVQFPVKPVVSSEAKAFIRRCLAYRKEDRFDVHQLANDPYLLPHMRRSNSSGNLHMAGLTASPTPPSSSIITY
Procedure, shortened: as §1

[8] = molecular target: T8, scanMAX Kinase assay panel (Plasmodium falciparum, UniProt P61075); settings: PFPK5 (P. falciparum); 1 uM; read-out: Percent Control (%)
T8 construct: purchased DiscoverX
Procedure, shortened: as §1

T1 sequence (P08581 25-1390): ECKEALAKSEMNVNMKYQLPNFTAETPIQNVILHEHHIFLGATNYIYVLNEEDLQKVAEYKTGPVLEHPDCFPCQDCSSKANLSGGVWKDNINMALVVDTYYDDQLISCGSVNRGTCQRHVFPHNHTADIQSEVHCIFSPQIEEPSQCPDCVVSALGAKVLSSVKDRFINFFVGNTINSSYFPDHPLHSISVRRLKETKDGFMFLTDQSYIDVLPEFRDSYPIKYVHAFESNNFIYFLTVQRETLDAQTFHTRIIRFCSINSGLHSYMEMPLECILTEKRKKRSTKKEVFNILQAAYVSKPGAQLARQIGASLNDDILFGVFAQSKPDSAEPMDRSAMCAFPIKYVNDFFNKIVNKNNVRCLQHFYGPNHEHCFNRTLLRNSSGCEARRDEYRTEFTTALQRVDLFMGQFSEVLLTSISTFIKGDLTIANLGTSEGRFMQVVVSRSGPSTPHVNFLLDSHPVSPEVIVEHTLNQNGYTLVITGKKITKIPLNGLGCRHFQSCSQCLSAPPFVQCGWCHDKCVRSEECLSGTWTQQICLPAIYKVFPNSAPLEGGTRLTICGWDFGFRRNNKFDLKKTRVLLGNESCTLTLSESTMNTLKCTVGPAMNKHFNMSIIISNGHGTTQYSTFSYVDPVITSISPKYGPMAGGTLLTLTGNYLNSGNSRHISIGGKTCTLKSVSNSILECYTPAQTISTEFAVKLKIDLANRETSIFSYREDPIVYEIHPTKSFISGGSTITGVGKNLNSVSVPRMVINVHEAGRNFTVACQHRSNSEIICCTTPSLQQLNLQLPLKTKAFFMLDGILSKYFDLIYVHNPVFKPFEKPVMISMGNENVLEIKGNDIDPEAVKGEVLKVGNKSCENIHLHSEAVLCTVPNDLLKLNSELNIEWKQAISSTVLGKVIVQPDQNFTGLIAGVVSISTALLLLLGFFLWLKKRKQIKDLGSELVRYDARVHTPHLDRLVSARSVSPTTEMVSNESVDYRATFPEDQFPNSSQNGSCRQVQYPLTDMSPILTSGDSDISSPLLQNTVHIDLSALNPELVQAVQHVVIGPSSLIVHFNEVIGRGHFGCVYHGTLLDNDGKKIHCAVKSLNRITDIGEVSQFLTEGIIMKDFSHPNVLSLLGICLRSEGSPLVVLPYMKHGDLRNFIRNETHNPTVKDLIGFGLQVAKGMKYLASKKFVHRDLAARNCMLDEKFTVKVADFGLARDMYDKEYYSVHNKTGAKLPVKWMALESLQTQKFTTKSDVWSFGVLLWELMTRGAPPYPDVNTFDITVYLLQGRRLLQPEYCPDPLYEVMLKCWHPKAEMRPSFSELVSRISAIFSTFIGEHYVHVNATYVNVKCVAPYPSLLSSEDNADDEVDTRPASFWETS
T8 sequence (P61075 whole entry): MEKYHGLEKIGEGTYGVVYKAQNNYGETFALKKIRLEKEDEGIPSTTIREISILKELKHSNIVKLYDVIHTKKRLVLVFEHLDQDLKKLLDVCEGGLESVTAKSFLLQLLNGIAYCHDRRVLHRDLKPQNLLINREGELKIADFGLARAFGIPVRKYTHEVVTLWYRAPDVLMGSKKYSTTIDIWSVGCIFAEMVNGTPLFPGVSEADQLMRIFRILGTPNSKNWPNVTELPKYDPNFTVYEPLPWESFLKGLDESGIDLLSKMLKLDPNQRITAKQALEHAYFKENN
T5 sequence (Q8NEV4 whole entry): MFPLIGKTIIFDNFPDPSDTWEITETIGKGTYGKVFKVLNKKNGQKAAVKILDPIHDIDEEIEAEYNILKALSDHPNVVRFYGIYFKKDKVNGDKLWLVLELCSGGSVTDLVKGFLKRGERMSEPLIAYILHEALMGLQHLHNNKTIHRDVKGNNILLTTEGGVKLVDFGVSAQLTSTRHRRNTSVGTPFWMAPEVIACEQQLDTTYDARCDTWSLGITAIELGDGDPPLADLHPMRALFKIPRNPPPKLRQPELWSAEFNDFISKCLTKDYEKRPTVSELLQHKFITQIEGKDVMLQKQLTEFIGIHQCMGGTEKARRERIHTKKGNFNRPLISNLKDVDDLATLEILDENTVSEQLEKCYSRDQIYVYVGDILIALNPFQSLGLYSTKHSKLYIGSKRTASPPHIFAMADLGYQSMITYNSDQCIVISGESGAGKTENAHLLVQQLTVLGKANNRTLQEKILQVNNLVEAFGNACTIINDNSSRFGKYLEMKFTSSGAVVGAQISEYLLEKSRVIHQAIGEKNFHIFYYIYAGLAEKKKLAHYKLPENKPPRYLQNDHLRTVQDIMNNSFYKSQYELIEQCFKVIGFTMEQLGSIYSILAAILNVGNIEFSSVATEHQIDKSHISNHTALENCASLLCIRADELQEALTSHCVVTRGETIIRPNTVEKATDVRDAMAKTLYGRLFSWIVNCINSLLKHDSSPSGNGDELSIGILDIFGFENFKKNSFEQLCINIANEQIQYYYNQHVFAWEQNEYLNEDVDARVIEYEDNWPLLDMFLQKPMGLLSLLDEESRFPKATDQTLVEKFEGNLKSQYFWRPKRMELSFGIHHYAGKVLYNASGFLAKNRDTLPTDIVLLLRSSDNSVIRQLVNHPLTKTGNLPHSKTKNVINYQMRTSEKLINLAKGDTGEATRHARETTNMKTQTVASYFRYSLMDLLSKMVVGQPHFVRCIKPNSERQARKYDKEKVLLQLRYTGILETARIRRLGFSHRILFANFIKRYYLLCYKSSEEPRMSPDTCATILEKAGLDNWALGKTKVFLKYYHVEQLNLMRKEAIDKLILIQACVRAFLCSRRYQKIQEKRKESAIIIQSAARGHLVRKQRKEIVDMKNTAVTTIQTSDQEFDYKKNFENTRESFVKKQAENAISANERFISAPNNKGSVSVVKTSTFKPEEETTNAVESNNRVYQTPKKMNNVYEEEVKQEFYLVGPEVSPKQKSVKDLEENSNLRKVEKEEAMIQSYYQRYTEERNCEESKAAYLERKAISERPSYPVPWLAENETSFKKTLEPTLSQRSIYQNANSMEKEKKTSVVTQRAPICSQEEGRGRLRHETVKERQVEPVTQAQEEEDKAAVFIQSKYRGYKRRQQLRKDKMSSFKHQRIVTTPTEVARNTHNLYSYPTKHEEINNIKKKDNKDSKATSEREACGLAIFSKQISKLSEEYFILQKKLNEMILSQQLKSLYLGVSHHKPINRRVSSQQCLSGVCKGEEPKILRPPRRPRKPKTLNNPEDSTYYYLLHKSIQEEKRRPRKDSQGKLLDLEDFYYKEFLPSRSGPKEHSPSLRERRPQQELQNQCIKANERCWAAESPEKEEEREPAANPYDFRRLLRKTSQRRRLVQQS
T6 sequence (Q99558 whole entry): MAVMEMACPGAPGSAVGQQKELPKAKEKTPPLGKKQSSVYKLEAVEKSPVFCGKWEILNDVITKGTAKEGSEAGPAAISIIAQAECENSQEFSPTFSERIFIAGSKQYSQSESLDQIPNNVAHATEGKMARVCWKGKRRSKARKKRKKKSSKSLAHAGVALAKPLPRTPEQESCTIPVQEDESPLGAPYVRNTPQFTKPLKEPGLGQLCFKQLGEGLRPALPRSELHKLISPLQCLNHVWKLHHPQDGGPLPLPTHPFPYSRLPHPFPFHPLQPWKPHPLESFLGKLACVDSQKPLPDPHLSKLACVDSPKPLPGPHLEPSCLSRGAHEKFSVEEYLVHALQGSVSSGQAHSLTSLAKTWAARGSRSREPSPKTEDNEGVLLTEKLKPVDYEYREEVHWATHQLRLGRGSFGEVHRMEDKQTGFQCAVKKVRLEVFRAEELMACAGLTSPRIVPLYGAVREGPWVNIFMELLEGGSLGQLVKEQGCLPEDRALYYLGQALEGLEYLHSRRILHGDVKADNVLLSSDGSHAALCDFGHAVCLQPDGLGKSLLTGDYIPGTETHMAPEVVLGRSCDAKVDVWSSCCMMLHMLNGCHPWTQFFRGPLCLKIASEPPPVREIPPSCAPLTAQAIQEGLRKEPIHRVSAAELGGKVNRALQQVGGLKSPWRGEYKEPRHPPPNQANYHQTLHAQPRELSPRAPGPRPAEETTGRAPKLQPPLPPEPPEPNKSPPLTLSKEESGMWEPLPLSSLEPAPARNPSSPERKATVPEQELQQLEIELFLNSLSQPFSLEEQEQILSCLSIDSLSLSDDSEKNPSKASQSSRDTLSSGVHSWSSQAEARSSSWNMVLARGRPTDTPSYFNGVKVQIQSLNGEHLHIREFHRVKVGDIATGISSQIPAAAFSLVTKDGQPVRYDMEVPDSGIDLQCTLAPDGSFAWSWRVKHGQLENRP
T3 sequence (P49841 whole entry): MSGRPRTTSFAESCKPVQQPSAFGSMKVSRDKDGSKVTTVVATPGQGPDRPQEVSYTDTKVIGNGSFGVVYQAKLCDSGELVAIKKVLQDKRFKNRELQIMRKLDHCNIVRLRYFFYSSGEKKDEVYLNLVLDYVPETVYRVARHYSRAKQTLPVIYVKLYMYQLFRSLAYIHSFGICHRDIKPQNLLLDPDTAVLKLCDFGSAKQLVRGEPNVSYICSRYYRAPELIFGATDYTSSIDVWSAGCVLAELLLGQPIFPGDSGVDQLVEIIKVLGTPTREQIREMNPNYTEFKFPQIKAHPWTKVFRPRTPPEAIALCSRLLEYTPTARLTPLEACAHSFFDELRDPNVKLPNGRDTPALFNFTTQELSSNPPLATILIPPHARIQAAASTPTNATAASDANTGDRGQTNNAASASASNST

Compound	remaining binding at 1 µM [1] [%]	remaining binding at 1 µM [2] [%]	remaining binding at 1 µM [3] [%]	remaining binding at 1 µM [4] [%]	remaining binding at 1 µM [5] [%]	remaining binding at 1 µM [6] [%]	remaining binding at 1 µM [7] [%]	remaining binding at 1 µM [8] [%]
Cc1ccc(C(=O)Nc2ccc(CN3CCN(C)CC3)c(C(F)(F)F)c2)cc1C#Cc1cnc2c(Nc3cnn(C)c3)cccn12 [Example 1, 4-methyl-3-((8-((1-methyl-1H-pyrazol-4-yl)amino)imidazo[1,2-a]pyridin-3-yl)ethynyl)-N-(4-((4-methylpiperazin-1-yl)methyl)-3-(trifluoromethyl)phenyl)benzamide]	18	0	79	18	14	91	93	87
Cc1cn(-c2cc(NC(=O)c3ccc(C)c(C#Cc4cnc5c(Nc6cnn(C)c6)cccn45)c3)cc(C(F)(F)F)c2)cn1 [Example 12, 4-methyl-N-(3-(4-methyl-1H-imidazol-1-yl)-5-(trifluoromethyl)phenyl)-3-((8-((1-methyl-1H-pyrazol-4-yl)amino)imidazo[1,2-a]pyridin-3-yl)ethynyl)benzamide]	47	27	85	55	88	85	75	100
Cc1ccc(NC(=O)C2(C(=O)Nc3ccc(F)cc3)CC2)cc1C#Cc1cnc2c(Nc3cnn(C(C)C)c3)cccn12 [Example 78]	100	98	96	100	100	97	96	93

— US10870647B2, “Imidazopyridine derivative, method for preparing same, and pharmaceutical composition containing same as active ingredient for preventing or treating cancer” (DAEGU-GYEONGBUK MEDICAL INNOVATION FOUNDATION, priority 2016, dated 2020)
